Holding throughout (assay): NCI tumour cell line growth inhibition, 48 h
In test [1] the test system is DLD-1 colon.
Test [2] concerns DMS 114 small cell lung.
The test system of test [3] is M19-MEL melanoma.
Test [4] deals with SNB-78 CNS.
Test [5] has as its system HOP-18 NSCLC.
The subject of test [6] is KM20L2 colon.
Test [7] relates to RXF-631 renal.
Test [8] concerns XF 498 CNS.
Test [9] concerns MDA-N.
Test [10] concerns P388/ADR leukemia.

Results on 19 compounds are retold here after PubChem BioAssay (NCI).

Several values for one entry are separate records, joined by “and”; a condition that tells them apart may be missing. Equal values may be shown once.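 All cell lines were grown in 96-well plates and treated with compound for 48 hours. The concentration for 50% growth inhibition is given as GI50. TGI: concentration producing complete growth inhibition.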

With `CCCCNC(=O)OCC(COc1ccccc1OC)OC(=O)NCCCC` (stereo not given), the TGI in test [1], in test [2], in test [3], in test [4], in test [5] and in [6] was greater than 100 µM throughout. Also, the TGI in test [7] and in test [8] was greater than 100 µM in each case.
`CC(N)(Cc1c[nH]c2ccccc12)C(=O)O` (stereo not given) returned a TGI in test [9] greater than 100 µM.
As for `CC1(C(=O)NCCN(CCNC(=O)C2(C)CC3(C)CC(C)(C2)C(=O)NC3=O)CCNC(=O)C2(C)CC3(C)CC(C)(C2)C(=O)NC3=O)CC2(C)CC(C)(C1)C(=O)NC2=O` (stereo not given), the TGI in [2], in test [3], in test [4], in test [5], in test [6] and in test [8] was greater than 100 µM throughout.
As to `C[n+]1c2cc(N)ccc2cc2ccc(N)cc21` (tested in a mixture with another compound), in [9], the GI50 is 0.64 µM and the TGI is 2.06 µM.
In the case of `CN(C)C(=S)/N=c1\ssc(=S)n1-c1ccccc1`, the TGI was 26.9 µM in [1]; 31.1 µM in [2]; 30.4 µM in [3]; 40 µM in test [4]; greater than 100 µM in [5]; 33.2 µM in test [6]. In addition, the TGI in test [8] came out at 27.9 µM.
Compound `O=C1c2ccccc2C(=O)c2c(NC(=O)C(Cl)CCl)cccc21` (stereo not given) gave a TGI in test [9] of 24.6 µM.
As to `NC(=S)N/N=C1\C(=O)N(CCc2ccccc2)C(=O)C1C(=O)NCCc1ccccc1` (stereo not given), the TGI in test [2], in [3], in test [4], in test [5] and in test [6] was greater than 100 µM each time.
Take `COC1=C(C)C(=O)C2=C(C1=O)C(CO)N1C(C#N)C3CC4C(C1C2N1CCOC41)N3C` (stereo not given): the TGI in test [1] was 0.836 µM and 5.2 µM; in [2], 0.0348 µM and 0.0203 µM; in test [3] it was 0.177 µM and 0.11 µM; in test [5] it was 0.326 µM; in test [6], 0.83 µM and 0.104 µM; in test [9] it was 0.0156 µM and < 0.0374 µM. The TGI is greater than 100 µM in test [10]; 3.4 µM in test [7]; 0.0183 µM and 0.0285 µM in [8]. Further, the GI50 in test [2] is 0.0141 µM; in test [3] it was 0.0319 µM; in test [5], 0.0484 µM; in test [6] it was 0.0261 µM; in test [8], 0.00607 µM.
For the compound `NCCn1ccc(NC(c2ccccc2)(c2ccccc2)c2ccccc2)nc1=O`, the TGI in test [1] is greater than 100 µM; in test [2], 38.6 µM; in test [3], 42.2 µM; in test [4], 42.5 µM; in test [5], greater than 100 µM; in test [6], 32.2 µM. In addition, the TGI in [8] was determined as 26.1 µM.
`CSc1c(S(C)=O)[nH]c2cc(Br)cc(Br)c12` (stereo not given): the TGI in test [1] came out at 51.9 µM; in [3], 75.4 µM; in test [4] it was 57 µM; in test [5] it was 80.5 µM.
Take `CNS(=O)(=O)c1ccccc1C(=N)c1ccccc1`: the TGI in test [9] is greater than 100 µM.
`c1ccc(CCCNc2nnnc3ccccc23)cc1` gave a TGI in test [9] greater than 100 µM.
On to `COc1cc[c]([Sb]([Br])([CH]=C(C)C)([CH]=C(C)C)[CH]=C(C)C)cc1`, for which the GI50 in [1] is 24.1 µM; in test [2], 3.02 µM; in test [3] it was 3.1 µM; in test [6] it was 5.06 µM. The TGI in test [1] was greater than 100 µM; in test [2] it was 20.8 µM; in [3], greater than 100 µM; in [6], greater than 100 µM.
As for `O=C1NC2(CCCC2)/C(=N\O)C12CCCC2`, the TGI in test [1], in test [2], in test [3], in test [4], in test [5] and in test [8] was greater than 100 µM each time.
`Clc1ccccc1C1N2CCCCC2[C@@H]2c3[nH]c4ccccc4c3CCN12` (stereo not given in full): the TGI in [1] was 37.5 µM; in test [2], 41.6 µM; in test [3], 29.2 µM; in test [4], 61.1 µM; in test [5], greater than 100 µM; in [6] it was 34.1 µM. Moreover, in test [8], the TGI turned out to be 35.4 µM.
Turning to `NC1=NN(c2ccccc2)C(=O)C1/C(=N\NC(=O)c1cc2ccccc2cc1O)C(=O)Nc1nc([N+](=O)[O-])cs1` (stereo not given), the TGI in [1] is greater than 77.2 µM; in test [2], 45.6 µM; in test [3], greater than 82.9 µM; in test [4], greater than 100 µM; in test [5], greater than 100 µM; in test [6], greater than 100 µM. The TGI was greater than 71.7 µM in test [7] and greater than 100 µM in test [8].
`[C-]#[O+].[C-]#[O+].[Ir].[O-]c1ccc2ccccc2c1N=Nc1ccccc1`: the GI50 in test [1] is 3.3 µM; in test [2] it was 2.68 µM; in [3], 3.24 µM; in test [4] it was 24.3 µM; in [5], 0.313 µM; in test [8] it was 2.14 µM. In addition, the TGI was 12.4 µM in test [1]; 8.68 µM in test [2]; 21.2 µM in test [3]; 53 µM in test [4]; 10.3 µM in test [5]; 18.8 µM in test [9]. In [8], this compound showed a TGI of 5.18 µM.
Compound `Clc1ccccc1-c1nc(-c2ccncc2)no1` displayed a TGI in [9] greater than 100 µM.
For the compound `COc1ccc2nc3ccccc3c(NCCCCCN(CCCl)CCCl)c2c1`, the TGI in test [1] is 0.793 µM; in test [4], 2.96 µM; in [5] it was greater than 27.3 µM; in test [6], 1.02 µM; in [8], 0.0717 µM.
